Values quoted from earlier work in patent US5855881A, “Mammalian alcohol dehydrogenase and aldehyde dehydrogenase production in plants” (priority 1996, dated 1999).

Tests used:
[1] = biological target: T1, human cytosolic ALDH1 (aldehyde dehydrogenase) (Homo sapiens, UniProt P00352); details: read-out: Km toward acetaldehyde
T1 construct: at least five ALDHs that have been purified and characterized from human liver or stomach; host or cells: purified from human liver or stomach (Yin et al. 1993)
T1 sequence (P00352 1-501): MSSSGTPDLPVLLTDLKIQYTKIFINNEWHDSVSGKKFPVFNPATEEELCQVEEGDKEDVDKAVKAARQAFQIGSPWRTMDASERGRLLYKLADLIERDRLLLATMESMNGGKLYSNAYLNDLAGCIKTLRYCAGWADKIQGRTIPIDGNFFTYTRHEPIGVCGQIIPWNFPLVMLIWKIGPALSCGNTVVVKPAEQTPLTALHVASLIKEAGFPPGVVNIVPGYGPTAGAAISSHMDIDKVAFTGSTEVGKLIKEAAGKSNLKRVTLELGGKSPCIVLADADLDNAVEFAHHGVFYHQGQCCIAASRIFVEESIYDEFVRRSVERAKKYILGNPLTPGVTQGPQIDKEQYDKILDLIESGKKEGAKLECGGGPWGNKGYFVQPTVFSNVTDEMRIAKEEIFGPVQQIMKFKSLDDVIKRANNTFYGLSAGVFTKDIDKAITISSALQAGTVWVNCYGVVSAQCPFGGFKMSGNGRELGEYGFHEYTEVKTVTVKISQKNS

[2] = biological target: T2, human mitochondrial ALDH2 (aldehyde dehydrogenase) (Homo sapiens, UniProt P05091); details: read-out: Km toward acetaldehyde
T2 construct: at least five ALDHs that have been purified and characterized from human liver or stomach; host or cells: purified from human liver or stomach (Yin et al. 1993)
T2 sequence (P05091 18-517): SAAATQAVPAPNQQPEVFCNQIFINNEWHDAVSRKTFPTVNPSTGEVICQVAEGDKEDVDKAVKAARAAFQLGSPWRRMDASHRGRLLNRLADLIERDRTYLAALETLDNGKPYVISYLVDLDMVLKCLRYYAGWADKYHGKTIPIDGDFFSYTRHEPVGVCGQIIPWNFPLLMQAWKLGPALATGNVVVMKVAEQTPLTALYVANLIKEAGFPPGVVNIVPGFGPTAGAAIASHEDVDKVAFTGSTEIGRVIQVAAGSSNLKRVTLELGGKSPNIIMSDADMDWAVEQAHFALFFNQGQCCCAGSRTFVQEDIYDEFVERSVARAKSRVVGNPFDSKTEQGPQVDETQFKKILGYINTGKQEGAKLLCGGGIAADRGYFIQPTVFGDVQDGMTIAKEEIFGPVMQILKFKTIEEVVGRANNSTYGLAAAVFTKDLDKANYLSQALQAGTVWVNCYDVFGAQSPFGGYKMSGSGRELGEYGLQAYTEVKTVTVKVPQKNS

[3] = biological target: T3, human γ-aminobutyraldehyde dehydrogenase (GABALDH) (Homo sapiens, UniProt P49189); details: read-out: Km toward acetaldehyde
T3 construct: γ-aminobutyraldehyde dehydrogenase has been purified from liver; host or cells: purified from human liver (Yin et al. 1993)

[4] = biological target: T4, human ALDH3 (aldehyde dehydrogenase) (Homo sapiens, UniProt P30838); details: read-out: Km toward acetaldehyde
T4 construct: at least five ALDHs that have been purified and characterized from human liver or stomach; host or cells: purified from human liver or stomach (Yin et al. 1993)
T4 sequence (P30838 1-453): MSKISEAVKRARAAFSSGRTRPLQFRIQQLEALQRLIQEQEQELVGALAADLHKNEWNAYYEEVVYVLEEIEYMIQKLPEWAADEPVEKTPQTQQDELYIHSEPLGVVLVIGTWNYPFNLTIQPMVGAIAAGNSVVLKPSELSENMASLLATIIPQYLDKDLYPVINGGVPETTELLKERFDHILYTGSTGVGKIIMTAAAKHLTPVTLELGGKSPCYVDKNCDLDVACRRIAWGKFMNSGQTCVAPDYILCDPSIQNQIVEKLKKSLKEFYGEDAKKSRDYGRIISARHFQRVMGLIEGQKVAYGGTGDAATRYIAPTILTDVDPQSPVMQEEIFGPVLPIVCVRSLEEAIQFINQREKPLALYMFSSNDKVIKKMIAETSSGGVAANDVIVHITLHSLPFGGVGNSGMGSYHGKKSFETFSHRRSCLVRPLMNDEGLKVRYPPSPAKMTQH

[5] = biological target: T5, human ALDH4 (glutamic γ semialdehyde dehydrogenase, GSDH) (Homo sapiens, UniProt P30038); details: read-out: Km toward acetaldehyde
T5 construct: at least five ALDHs that have been purified and characterized from human liver or stomach; host or cells: purified from human liver or stomach (Yin et al. 1993)
T5 sequence (P30038 25-563): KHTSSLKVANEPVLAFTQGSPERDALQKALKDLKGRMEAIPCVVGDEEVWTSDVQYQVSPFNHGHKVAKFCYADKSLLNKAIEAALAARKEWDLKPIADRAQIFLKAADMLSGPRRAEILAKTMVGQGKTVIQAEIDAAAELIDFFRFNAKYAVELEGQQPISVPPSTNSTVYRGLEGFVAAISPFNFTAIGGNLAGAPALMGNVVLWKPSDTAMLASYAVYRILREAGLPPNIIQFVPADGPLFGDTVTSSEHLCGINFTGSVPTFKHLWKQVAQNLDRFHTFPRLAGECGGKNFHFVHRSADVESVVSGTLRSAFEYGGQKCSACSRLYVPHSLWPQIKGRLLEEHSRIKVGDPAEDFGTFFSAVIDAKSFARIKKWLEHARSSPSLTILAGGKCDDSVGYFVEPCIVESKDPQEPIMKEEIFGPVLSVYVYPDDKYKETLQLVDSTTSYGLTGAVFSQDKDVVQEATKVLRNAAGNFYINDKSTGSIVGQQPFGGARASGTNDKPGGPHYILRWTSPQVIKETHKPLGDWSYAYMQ

[6] = biological target: human class IV σ-ADH (stomach alcohol dehydrogenase) (Homo sapiens, UniProt P40394)
Sequence of human class IV σ-ADH (stomach alcohol dehydrogenase) (P40394 14-386 limits assumed): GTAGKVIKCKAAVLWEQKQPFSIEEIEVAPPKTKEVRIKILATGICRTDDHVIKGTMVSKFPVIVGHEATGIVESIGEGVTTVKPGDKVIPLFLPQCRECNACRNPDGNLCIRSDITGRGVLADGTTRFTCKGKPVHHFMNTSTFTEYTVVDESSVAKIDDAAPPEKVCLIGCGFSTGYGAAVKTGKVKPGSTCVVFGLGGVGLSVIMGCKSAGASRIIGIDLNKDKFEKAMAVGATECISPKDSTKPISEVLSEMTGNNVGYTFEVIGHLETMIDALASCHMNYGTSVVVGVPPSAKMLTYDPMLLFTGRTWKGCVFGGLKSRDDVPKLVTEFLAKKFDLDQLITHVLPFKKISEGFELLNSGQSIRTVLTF

T3 sequence (P49189 whole entry): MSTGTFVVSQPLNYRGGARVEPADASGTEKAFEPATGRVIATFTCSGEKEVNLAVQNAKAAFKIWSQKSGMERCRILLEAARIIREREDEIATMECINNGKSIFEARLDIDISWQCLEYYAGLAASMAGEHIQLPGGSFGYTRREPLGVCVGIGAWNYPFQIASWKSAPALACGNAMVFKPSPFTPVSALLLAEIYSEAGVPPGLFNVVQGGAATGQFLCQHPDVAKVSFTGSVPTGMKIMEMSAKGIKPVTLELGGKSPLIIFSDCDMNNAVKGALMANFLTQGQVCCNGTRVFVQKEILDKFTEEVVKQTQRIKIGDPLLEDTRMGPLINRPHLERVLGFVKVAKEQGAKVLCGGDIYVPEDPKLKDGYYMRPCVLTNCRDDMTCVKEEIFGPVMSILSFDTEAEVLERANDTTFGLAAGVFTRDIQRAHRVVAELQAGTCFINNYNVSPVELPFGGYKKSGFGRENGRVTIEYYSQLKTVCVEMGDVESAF

Row | Compound | Km [1] | Km [2] | Km [3] | Km [4] | Km [5] | kcat for ethanol oxidation ([6]; enzyme isolated from human stomach tissue) | kcat value for ethanol ([6]; pH 7.5) | Km ([6]; read-out: Km for ethanol, enzyme isolated from human stomach tissue)
1 | CC=O [acetaldehyde] | 30 µM | 3 µM | 50 µM | 83000 µM | 5000 µM | – | – | –
2 | CCO [ethanol] | – | – | – | – | – | 16.67 to 25 s⁻¹ | about 1000 | ~41000 µM
